Consider ten compounds from patent US20050276855A1, “Composition and method using local application of lipophilic lathyrogens sustained release formulations” (priority 2004, published 2005).

In data set [1] the test system is incision skin wound in rats. As to the kind of experiment: Breaking strength of incision skin wound in rats after a single local injection. The format is in vivo. The conditions noted are these: for Breaking strength / Change in % of control / Effect on breaking strength versus non-treated controls: Example II; for Breaking strength: 12 days after wounding, single injection underneath wound line, DPA 5 mg/0.25 ml, hexyl ester 7.5 mg/0.25 ml, Mean +/− SD; for Change in % of control: breaking strength 12 days after wounding; for Effect on breaking strength versus non-treated controls: in saline; for Effect on breaking strength versus non-treated controls / Breaking strength of skin wound, X: 12 days; for Effect on breaking strength of the healing wound: Example III, in polyethylene glycol 600; for Breaking strength of skin wound, X: Example IV, in thermosensitive polymer (TSP), Sprague-Dawley female rats. How it is done: Young adult rats have the hair clipped in the dorsum midline to make a rectangle having the dimensions of about 4 cm by about 9 cm. A full thickness skin incision in the midline of the dorsum of the rat is made about 8 cm long. The wound is closed with 9 to 10 interrupted sutures.
Various treatments are injected in between the sutures, underneath the closed wounds with a 8 cm long gastric needle, inserted at the distal site of the incision wound. After 12 days the animals are terminated, the skin wound is dissected with 2 cm intact skin at both sides. A specially designed multiple razor blade cutter with blades 0.5 cm apart is placed onto the skin, stretched loosely onto a cork lined board and hammered to obtain several (10 to 12) equal width skin strips, having the wound in the middle. Individual skin strips are attached to grips of a tensiometer and breaking strength is determined.
In this Example II, Applicants utilized the above-recited test method to evaluate local administration of unmodified lathyrogens and/or chemically modified lathyrogens, administered in a polymeric carrier.
In certain embodiments, the polymeric carrier comprised a mixture of polylactic and polyglycolic acid of defined molecular weights and proportion, dissolved in N-methylpyrolidone. This polymer was obtained from Atrix Company (CO) as Atrigel 30 which was supposed to be degraded in the tissues within 30 days. […] The rate of its degradation—hydrolysis, determines the rate of the release of the lathyrogen dispersed therein.
The tested lathyrogens, Compound I or derivative thereof, namely D-penicillamine-hexyl ester HCl, i.e. Compound III, wherein R1 is hexyl, was used at the dose of 5 mg/0.25 ml of polymeric carrier (for DPA), or 7.5 mg of Compound III/0.25 ml of polymeric carrier. The formulation was injected after closing the skin wound between the sutures, underneath the wound line. Saline solutions of BAPN and DPA were also administered at the same dose and volume.
Four rats were used in each group. The data recited in Table II are presented as Mean +/− Standard Deviation, based on 20 to 28 determinations in every group. The testing of the breaking strength of the skin wound strips was done 12 days after inflecting the wound. […]

The subject of data set [2] is esophageal stricture. The note with it: young adult rabbits; cited from earlier work.
The test system of data set [3] is Schiff base crosslinks of the collagen. As to the kind of experiment: Swelling of skin samples in various solutions (collagen crosslink cleavage). The conditions noted are these: for Cleavage of crosslinks once reduced: crosslinks reduced with sodium borohydrate; for Cleavage of non reduced Schiff base crosslinks of collagen: non reduced skin discs. The arrangement: species or system nude mice. From the text:
This example documents one of the effects of DPA on the integrity of collagen structure. […] Once the crosslink is reduced (with sodium borohydrate) a stable covalent crosslinks is formed, resistant to any chemical means to break it. The Example also documents that only substances having —SH and —NH2 groups free are effective. Therefore N acetyl cystein is not effective due to the blocking its —NH2 group.
Method: Skin of 4 months old nude mice was dissected, spread on a board and with a 0.5 cm diameter punch several discs were obtained. These were kept in a moist chamber to prevent drying. The discs were weighted and immersed in the following solutions for 1 hour incubation: • 1. Phosphate buffered saline (0.1 M, pH 7.3)-control; • 2. PBS with 10 mg sodium borohydrate in 10 ml; • 3. Some discs from group 1 and 2 were further incubated for 1 hour PBS containing 100 mg cystein, or D-penicillamine or N-acetyl cystein; • 4. After 1 hour incubation in the above solutions, the skin samples were placed into 0.45% acetic acid (pH 3.5) for another hour.
After each incubation time the skins samples were blotted on a filter paper and weighted on a analytical balance with the sensitivity to 0.1 mg.
Swelling in Table 1 is given as mg weight/0.5 cm disc of skin. The data are shown as Mean +/− standard deviation (“SD”).
In this Example the swelling capacity was used as an indicator of the structural stability, namely number of crosslinks in the collagen molecules. More crosslinked collagen swells less than when the bonds are cleaved, resuming the structure of “young” collagen.

The next data set deals with sclera puncture wound. The note with it: locally injected; cited from earlier work.
Data set [4] has as its system function of filter surgery. The conditions noted are these: systemic administration; cited from earlier work.
Data set [5] relates to esophageal stricture. The conditions noted are these: given systemically, without bougienage; cited from earlier work.
Data set [6] concerns scar contracture of intracardiac prosthetic patches. The conditions noted are these: systemic; cited from earlier work.
The subject of a further data set is peritendinous adhesions. The conditions noted are these: 1-2-g/day per os, cited from earlier work.
Another data set concerns lacerated tendons. The note with it: systemic administration; cited from earlier work.
Another data set concerns intraoccular pressure. The conditions noted are these: topical, cited from earlier work.
The mark [7] stands for this setting: 0.5 cm skin discs, 1 hour PBS, 1 hour PBS containing 100 mg substance, then 1 hour 0.45% acetic acid (pH 3.5).

Entries after “also recorded” stand apart in the source; their conditions may differ.

On to `CC(C)(S)C(N)C(=O)O` (stereo in doubt) [DPA, D-Penicillamine], for which, in [1], the Breaking strength is 695 +/− 38 g/0.5 cm, the “Change in % of control” value is −2% and the “Effect on breaking strength versus non-treated controls” value is reported as “no differences in the breaking strength”. Moreover, the “Severity of esophageal stricture” value in the data set with esophageal stricture [2] is on record as “less severe stricture”. In addition, in data set [3] (setting [7]), the “Swelling of skin samples, Mean” value is on record as 84.0 mg weight/0.5 cm disc of skin. In data set [3], the “Cleavage of crosslinks once reduced” value was “no effective” and the “Cleavage of non reduced Schiff base crosslinks of collagen” value is “cleaves the non reduced covalent Schiff base crosslinks; also recorded: effectively cleaving”. Also, in the data set on sclera puncture wound, the “Collagen deposition in adjacent muscle” value is given as “decreased” and the “Wound contraction after puncturing the sclera” value was “inhibited wound contraction”. Moreover, the “Effect on the function of filter surgery” value in [4] is “not effective”.
As to `CCCCCCNCCC#N` [BAPN - lipophilic, hexyl-beta-aminopropionitrile], in [1], the “Effect on breaking strength of the healing wound” value was “effectiveness” and the “Breaking strength of skin wound, X” value turned out to be 226.
On to `N#CCCN` [BAPN, Beta-aminopropionitrile], for which, in [1], the Breaking strength was 735 +/− 40 g/0.5 cm, the “Change in % of control” value was “+14%” and the “Effect on breaking strength versus non-treated controls” value is reported as “no differences in the breaking strength”. For the same compound, the “Stricture of the esophageal lumen” value in the data set with esophageal stricture [5] is listed as “preventing the stricture of the lumen”. Also, in data set [6], the “Scar contracture” value was “inhibition of scar contracture”. Further, the “Effect in patients after tenolysis” value in the data set with peritendinous adhesions is recorded as “beneficial effect”. Further, in the data set with peritendinous adhesions (study discontinued), the “Side toxic effects” value was “several side toxic effects”. Moreover, in the data set with lacerated tendons, the “Gliding function of lacerated tendons” value is given as “significant improvement in the gliding function”.
In the case of `N#CCCN.N#CCCN.O=C(O)/C=C/C(=O)O` [BAPN-F], in the data set with sclera puncture wound, the “Collagen deposition in adjacent muscle” value is “decreased” and the “Wound contraction after puncturing the sclera” value is “inhibited wound contraction”. Besides, the “Time postoperative pressure was maintained” value with intraoccular pressure (after filtration surgery) is recorded as 26.4+−11 weeks. For the same compound, the Overall success rate in the data set on intraoccular pressure (difficult cases of glaucoma) is given as 74%. For the same compound, the Postoperative intraoccular pressure in the data set with intraoccular pressure (preoperative pressure 40 mm Hg) is given as 19 mm Hg.
As for `N[C@@H](CS)C(=O)O` [CYSH, cystein], the “Swelling of skin samples, Mean” value in [3] (setting [7]) is 84.0 mg weight/0.5 cm disc of skin. Further, in [3], the “Cleavage of crosslinks once reduced” value was “no effective” and the “Cleavage of non reduced Schiff base crosslinks of collagen” value is “effectively cleaving”.
With `CCCCCCOC(=O)[C@H](N)C(C)(C)S.Cl` [DPA - lipophilic, D-penicillamine-hexyl ester HCl], in [1], the “Breaking strength of skin wound, X” value came to 321.
Take `CC(=O)N[C@@H](CS)C(=O)O` [N-acetylCYSH, N-acetyl cystein]: the “Swelling of skin samples, Mean” value in data set [3] (setting [7]) is 32.2 mg weight/0.5 cm disc of skin. The “Cleavage of non reduced Schiff base crosslinks of collagen” value in data set [3] is reported as “not effective”.
Regarding `[BH4-].[Na+]` [SBH + control, sodium borohydrate], the “Swelling of skin samples, Mean” value in data set [3] (discs first incubated 1 hour in PBS with 10 mg sodium borohydrate in 10 ml (crosslinks reduced), then substance, then 0.45% acetic acid (pH 3.5)) is 27.5 mg weight/0.5 cm disc of skin.
With `COc1cc2c(c(OC)c1OC)-c1ccc(OC)c(=O)cc1[C@@H](NC(C)=O)CC2` [colchicine], in the data set on esophageal stricture [2], the “Severity of esophageal stricture” value was “severe stricture” and the “Wound healing” value is listed as “delayed wound healing”.
For the compound DPA-hexanal acetone adduct, the “Effect on breaking strength of the healing wound” value in data set [1] is “no effect”.
